Results as given in US6759432B2, “Medical use of matrix metalloproteinase inhibitors for inhibiting tissue contraction” (University of Florida Research Foundation, priority 1994, dated 2004).

How the values were obtained:
[1] = tested on: Human ocular fibroblasts (Tendon's capsule fibroblasts); experiment: Toxicity by tritiated thymidine incorporation (DNA synthesis); assay type: cell-based; details: 80.0, 8.0 and 0.8 μg/ml; 24 hours; medium plus 10% serum and vehicle
Experimental: The toxicity of the inhibitors was tested by measuring DNA synthesis by tritiated thymidine incorporation. The assay was adapted from a procedure previously described, Woost, P. G. et al 1992.
Human ocular fibroblasts (Tendon's capsule fibroblasts) were cultured in Trimix (DMEM/F-10/M-199) cell culture medium (available from GIBCO/BRL) supplemented with 10% bovine calf serum and grown to confluency in T-75 tissue culture flasks. (That is flasks having a surface area of 75 cm^2.) The cells were split and seeded into 24 well plates at a density of 1×10^4/well in 1.0 ml of medium with 10% bovine calf serum. The cells were incubated for 24-36 hours or until they reached 60-70% confluency. The medium was then changed to serum-free Trimix and the cells were incubated for an additional 24 hours. The cells were then incubated in quadruplicate wells for 24 hours with 1.0 μCi/well ^3H-thymidine in the following conditions: serum-free medium (Trimix), medium plus 10% serum, medium plus 10% serum and vehicle, alone or with the inhibitors. The vehicle was a buffered acetate solution. The solutions comprising medium with 10% serum and vehicle, alone or with inhibitors, were prepared by the method described in Example 1, section (c), above, using Trimix instead of the HEPES buffered DMEM. […] Radioactivity was determined by liquid scintillation counting […] of the solubilized cells. […]

[2] = tested on: rat endotendon fibroblasts; experiment: Collagen lattice contraction, rat endotendon fibroblasts; assay type: cell-based; details: 40 μg/ml
Experimental: (§1) Collagen lattices (gels) were prepared as previously described in Example 1 and were seeded with 1×10^5 cells per lattice of:
(§2) The lattices were then exposed to growth medium containing Galardin at 40 μg/ml or hydroxamic acid at 100μM (control). The test solutions were made up as described in Example 3 above and approximately 3 ml dose of the appropriate test solutions were used.

human ocular fibroblasts [3] = experiment: Contraction of fibroblast populated collagen gels (lattice area); assay type: cell-based; details: for contraction of gels (mean lattice area): 40 and 4 μg/ml, 7 days, vs hydroxamic acid control
Experimental: They were then removed from their substratum via a trypsinisation and were pelleted by centrifugation at 3000× g for 8 minutes. The supernatant was then discarded and the cell pellet resuspended in 1.1 ml of newborn calf serum. 100 μl of the suspension was removed and counted in a Coulter counter (Model ZF).
Triplicate gels were made by adding 1.05 ml of the concentrated medium to 1.8 ml of the type 1 collagen solution, mixing rapidly and then adding 0.45 ml of a cell suspension containing 300,000 cells and mixing rapidly.
1 ml aliquots of this gel were then added to petri dishes (area=8 cm^2) and then the dishes were rotated so that the gels were evenly distributed across the bottoms of the dishes. The gels were then incubated at 37° C. in 5% CO2 in air until they had solidified (usually 3 to 5 minutes). An area of the gel was then detached from the edge of each petri dish and 3 ml of normal growth medium solution (control 2), inhibitor test solution or buffer solution (control 1), were added. Each gel was then fully detached from the edges and bottom of the petri dish so that free-floating gels were obtained.
The gels, after solidification, were treated for 24 hours with 3 ml of each of the following test solutions:
The test and control solutions were replaced by 3 ml of the appropriate fresh solution after 24 hours. Photographs of the gel areas were taken on days 1 and 2 and were then digitised. The resulting data were processed by a computer and the gel areas were calculated. Phase-contrast photographs were taken of the top and middle of each gel after 1 and 2 days.
Test solutions were used in approximately 3 ml doses. For all contraction experiments cell morphology was monitored by phase contrast microscopy and the growth medium was changed every 3 to 4 days.
Collagen gels were seeded with either 100,000 or 500,000 cells. […] The gels were monitored for 7 days.
They were exposed to inhibitor and control solutions in the following ways:
The experiment was carried out as for (a) above with 1×10^5 cells per lattice and the test solutions used were BB-94 4 μg/ml, BB-94 0.4 μg/ml and control with vehicle (0.1% vol/vol DMSO). The development of the lattices was followed for seven days after seeding.
The experiment was carried out as for (d) above except that the test solutions used were 1:50 (vol/vol) of antibodies in growth medium. The antibodies used were antibodies to MMPs 1, 2, 3 and 9, obtained from Biogenesis Ltd., (Poole, U.K.). A control solution of 0.1% sodium azide and 0.14% rabbit serum in PBS diluted to 1:50 in growth medium was also used.

[4] = tested on: human keratinocytes and human dermal fibroblasts; experiment: Contraction of artificial skin equivalent; assay type: cell-based; details: 40 μg/ml; 7 days; vs hydroxamic acid 100 μM
Experimental: The effect of an MMP inhibitor on the contraction of an artificial skin equivalent was tested. […] This lattice was then exposed to growth medium containing Galardin at 40 μg/ml or hydroxamic acid at 100μM (control).

ocular fibroblasts = experiment: Fibroblast morphology within collagen lattices (phase contrast microscopy); assay type: cell-based, human
Experimental: Collagen lattices seeded with ocular fibroblasts were prepared and exposed to MMP inhibitors, both synthetic chemicals and antibodies, as described in Example 3 above. Cellular morphology was monitored by phase contrast microscopy.

[5] = tested on: Tenons capsule fibroblast; experiment: Actin cytoskeleton staining with FITC-phalloidin; assay type: cell-based, human; details: 40 μg/ml
Experimental: Monolayer cultures of fibroblasts and collagen lattices (gels) seeded with 1×10^5 cells per lattice were prepared (as described in Example 1).
In order to assess whether this difference was owing to the direct effect of the inhibitor or to differences in the degree of invasion into the matrix, cells were exposed in monolayer culture to the inhibitor and the cytoskeleton was-stained. See FIGS. 10A (control) and 10B (exposed to inhibitor). The arrows indicate the stress fibres on the cells in the monolayer culture.

human ocular fibroblasts [6] = experiment: Cytotoxicity: cell count and trypan blue dye exclusion; assay type: cell-based; details: 40 and 4 μg/ml; 2×10^4 cells per well; vs control medium
Experimental: This experiment was carried out substantially according to the method of Example 2, except that cells were seeded at 2×10^4 cells per well, cultured without radioactive material and were exposed to control medium (DMEM/10% NCS) or Galardin at 40 μg/ml and 4 μg/ml concentration. […] Wells were harvested and cells counted on a haemocytometer, see FIG. 3E for the results, and the percentage of viable cells in each well was measured using the trypan blue dye exclusion test, see FIG. 3F for the results.

[7] = tested on: MMP activity (proteolytically active species) of human Tenon's capsule fibroblasts; experiment: Gelatin zymography of seeded collagen lattices; assay type: cell-based; details: treatment of seeded lattices
Experimental: Samples of conditioned medium and collagen lattices (1×10^5 cells/lattice) were collected on days 1, 3 and 7 post seeding. Lattices were washed in phosphate buffered saline (PBS; 3×3 ml) prior to homogenisation in 0.5% (vol/vol) Triton-X100 in PBS (Hunt et al. 1993]. Gelatin zymography [Heussen & Dowdle 1980] was then performed on these samples. Briefly, samples and prestained molecular weight standards were resolved on 10% tris glycine gels containing 0.1% gelatin (Novex, R&D Systems, Oxford, U.K.). Gels were then incubated for 30 minutes in renaturing buffer, 30 minutes in developing buffer followed by a further 18 hours in developing buffer at 37° C. (all Novex). Gels were than stained in 0.5% (wt/vol) commassie blue in 45% (vol/vol) water, 45% (vol/vol) methanol and 10% (vol/vol) glacial acetic acid, followed by destaining in 45% (vol/vol) water, 45% (vol/vol) water, 45% (vol/vol) methanol and 10% (vol/vol) glacial acetic acid. MMP activity appeared as clear bands on a blue background.

human dermal fibroblasts = experiment: Collagen lattice contraction, human dermal fibroblasts; assay type: cell-based; details: 40 μg/ml
Experimental: as §1, §2

stromelysin = stromelysin (Homo sapiens, UniProt P08254); experiment: biochemical
Sequence of stromelysin (P08254 100-477): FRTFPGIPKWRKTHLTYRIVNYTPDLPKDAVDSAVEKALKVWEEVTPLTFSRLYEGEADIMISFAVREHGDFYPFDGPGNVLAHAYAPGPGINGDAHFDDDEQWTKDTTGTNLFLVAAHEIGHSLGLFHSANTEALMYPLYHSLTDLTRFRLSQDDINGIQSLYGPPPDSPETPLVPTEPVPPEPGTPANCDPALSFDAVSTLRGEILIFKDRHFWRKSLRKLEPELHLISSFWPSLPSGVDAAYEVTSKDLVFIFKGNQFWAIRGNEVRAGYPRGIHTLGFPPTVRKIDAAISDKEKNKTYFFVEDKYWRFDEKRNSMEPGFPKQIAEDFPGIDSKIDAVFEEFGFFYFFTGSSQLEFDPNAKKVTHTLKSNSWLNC

[8] = tested on: rat parietal sheath fibroblasts; experiment: Collagen lattice contraction, rat parietal sheath fibroblasts; assay type: cell-based; details: 40 μg/ml
Experimental: as §1, §2

gelatinase = experiment: Inhibition constant with gelatinase; assay type: biochemical
[9] = 1×10^5 cells per lattice, 7 days, vs hydroxamic acid 100 μM

Structure (SMILES): CC(C)C[C@H](CC(=O)O)C(=O)N[C@@H](Cc1c[nH]c2ccccc12)C(=O)N[C@@H](C)c1ccccc1 [GM1489]
- toxicity (3H-thymidine incorporation) [1]: no significant toxicity

Structure (SMILES): CNC(=O)[C@H](Cc1c[nH]c2ccccc12)NC(=O)[C@@H](CC(=O)NO)CC(C)C [GM6001, N-[2(R)-2-(hydroxamidocarbonylmethyl)-4-methylpentanoyl]-L-tryptophan methylamide]
- contraction of lattices (mean lattice area) [2, 9]: greatly reduced
- cellular invasion into and migration through the surrounding matrix ([2]; compared to controls): decreased cellular invasion into and migration through
- contraction of lattices already contracted for 5 days (human ocular fibroblasts [3]; 4 μg/ml from day 5 for 25 days, vs control solution): inhibited contraction
- contraction after replacement of inhibitor by control solution (reversibility) (human ocular fibroblasts [3]; 4 μg/ml until day 14, then control solution): significant increase in contraction from day 14 onwards
- contraction of lattices already contracted for 5 days (human ocular fibroblasts [3]; 40 μg/ml from day 5 for 25 days): stronger inhibitory effect than the 4 μg/ml solution
- contraction of collagen gels (gel area) (human ocular fibroblasts [3]; 400, 40 and 4 μg/ml, 100,000 cells per gel, 2 days, vs buffer and normal growth medium): inhibited the contraction of the collagen gels
- dose dependence of inhibition of gel contraction (human ocular fibroblasts [3]; 400, 40 and 4 μg/ml, 2 days): dose dependent
- viability of cells in the collagen gels at end of test (phase contrast microscopy) (human ocular fibroblasts [3]; 400, 40 and 4 μg/ml, 2 days): appeared to be viable
- contraction of gels (mean lattice area) (human ocular fibroblasts [3]; 100,000 cells per lattice): much less than that of gels exposed to control solutions
- contraction of gels (mean lattice area) (human ocular fibroblasts [3]; 500,000 cells per lattice): much less than that of gels exposed to the control solution
- contraction of lattices (mean lattice area) (human ocular fibroblasts [3]; continual exposure to 4 μg/ml, 1×10^5 cells/lattice, up to 40 to 50 days): very little contraction
- contraction of artificial skin equivalent (mean lattice area) [4]: less contraction than those exposed to the control solution
- toxicity (3H-thymidine incorporation) [1]: no significant toxicity
- cell morphology in lattices (ocular fibroblasts; 4 μg/ml, 7 days post seeding): Small cytoplasmic projections
- invasion into the surrounding collagen matrix (ocular fibroblasts; synthetic inhibitors as in Example 3, compared to controls): decreased invasion into the surrounding collagen matrix
- actin stress fibres on cells populating collagen gels ([5]; collagen lattice): do not appear to be present
- actin cytoskeleton in monolayer culture ([5]; monolayer culture, compared to controls): did not appear to affect the actin cytoskeleton
- cell number per well (haemocytometer) (human ocular fibroblasts [6]): did not adversely affect
- cell viability (percentage of viable cells, trypan blue) (human ocular fibroblasts [6]): did not adversely affect
- proteolytically active species in gelatin zymography [7]: abolishment of the four proteolytically active species
- contraction of lattices (mean lattice area) (human dermal fibroblasts; [9]): greatly reduced
- cellular invasion into and migration through the surrounding matrix (human dermal fibroblasts; compared to controls): decreased cellular invasion into and migration through
- Ki (stromelysin): 0.02 µM
- contraction of lattices (mean lattice area) [8, 9]: greatly reduced
- cellular invasion into and migration through the surrounding matrix ([8]; compared to controls): decreased cellular invasion into and migration through
- Ki (gelatinase): 0.0004 µM
